Data on 42 compounds can be found in patent publication US6355634B1, “Aromatic compounds” (Bayer Aktiengesellschaft, priority 1990, dated 2002).

Type in all cases: in vivo
In assay [1] the test system is Erysiphe graminis. As to the kind of experiment: Erysiphe graminis (protective action) on wheat seedlings. Conditions: Blumeria graminis, 168 h, 160 ppm spray, wheat cv. Lita, evaluated 7 days after infection, read-out: action (leaf area covered in Erysiphe graminis as a percentage compared with the infected control). How it is done: Erysiphe graminis (Protective Action)
30-40 wheat seedlings cv. “Lita” in the 1-leaf stage (distributed to two pots of ø7 cm) are sprayed thoroughly with a spray mixture prepared with a wettable powder of the active substance (with 160 ppm of active ingredient) and then cultured further in the greenhouse. One day after the treatment, the plants are dusted with conidia of Erysiphe graminis. The test is evaluated 7 days after the infection by determining the size of the leaf area covered in Erysiphe graminis as a percentage compared with the infected control.
Untreated, but infected control plants show a level of infection with Erysiphe of 100%.

Assay [2] has as its system Alternaria brassicae. The assay can be described thus: Alternaria brassicae (protective action) on cabbage seedlings. The note with it: 50 ppm spray, cabbage cv. Vorbote, evaluated 2-5 days after infection, read-out: action (leaf area infected with Alternaria brassicae as a percentage compared with the infected, untreated control). On the procedure:
Alternaria brassicae (Protective Action)
4 cabbage seedlings, cv. “Vorbote”, in the 6-leaf stage, distributed to 2 pots, are sprayed thoroughly with a spray mixture prepared with a wettable powder of the active substance (with 50 ppm of active ingredient) and subsequently cultured further in a controlled-environment cabinet at 19° C. and with 16 hours illumination per day. Two days after the treatment, the plants are infected by spraying with an aqueous conidia suspension (approx. 30,000 conidia/ml). The cabbage plants are then incubated at 24-26° C., under dew-point conditions and with a photoperiod of 16 hours. The test is evaluated 2-5 days after the infection by determining the leaf area infected with Alternaria brassicae as a percentage compared with the infected, untreated control.

The subject of assay [3] is Cercospora arachidicola. As to the kind of experiment: Action against Cercospora arachidicola on peanut plants (curative action). Conditions: Mycosphaerella arachidis, 288 h, 160 ppm spray, peanut cv. Tamnut, evaluated 12 days after treatment, read-out: action (leaf area infected with Cercospora arachidicola as a percentage compared with the infected control). How it is done:
Action Against Cercospora arachidicola on Peanut Plants (Curative Action)
Two peanut plants cv. “Tamnut” in the 4-leaf stage are sprayed with a conidia suspension of Cercospora arachidicola (approx. 200,000 conidia/ml) and subsequently incubated at 25-26° C. and under dew-point conditions. After two days, the plants are sprayed thoroughly from all sides with a spray mixture prepared with a wettable powder of the active substance (with 160 ppm of active ingredient). The treated plants are subsequently incubated in a controlled-environment cabinet under the following conditions: 25-27° C. and 80% atmospheric humidity during the day, 20° C. and dew-point conditions during the night; the photoperiod in each case is 16 hours. 12 days after the treatment, the test is evaluated by determining the leaf area infected with Cercospora arachidicola as a percentage compared with the infected control.

Assay [4] deals with Venturia inaequalis. As to the kind of experiment: Venturia inaequalis (curative action) on apple seedlings. Conditions: 50 ppm spray, apple cv. Golden Delicious, evaluated 9-10 days after treatment, read-out: action (leaf area covered in Venturia inaequalis as a percentage compared with the infected control). How it is done:
Venturia inaequalis (Curative Action)
Two apple seedlings cv. “Golden Delicious” are sprayed with a conidia suspension of Venturia inaequalis and subsequently incubated at 18° C. and under dew-point conditions. After 24 hours, the plants are sprayed thoroughly from all sides with a spray mixture prepared with a wettable powder of the active substance (with 50 ppm of active ingredient). The treated apple seedlings are subsequently cultured further in the greenhouse. 9-10 days after the treatment, the test is evaluated by determining the leaf area covered in Venturia inaequalis as a percentage compared with the infected control.

The test system of assay [5] is Plasmopara viticola. The assay can be described thus: Plasmopara viticola (protective action) on grapevine seedlings. Conditions: 144 h, 160 ppm spray, grapevine cv. Riesling x Sylvaner, day 6 after infection, read-out: action (leaf area infected with Plasmopara viticola as a percentage compared with the infected, untreated control). On the procedure: Plasmopara viticola (Protective Action)
2 grapevine seedlings cv. Riesling×Sylvaner, each in the 4-5 leaf stage, are sprayed thoroughly from all sides with a spray mixture prepared with a wettable powder of the active substance (with 160 ppm of active ingredient) and subsequently cultured further in a controlled-environment cabinet at 17° C., 70-80% relative atmospheric humidity and with a photoperiod of 16 hours. After 6 days, the test plants are infected by spraying the undersides of the leaves with zoosporangia of Plasmopara viticola, suspended in distilled water (approx. 300,000 sporangia/ml). The grapevine plants are then incubated as follows: 1 day at 22° C. and under dew-point conditions in the dark and subsequently 4 days in the greenhouse. To induce fructification of Plasmopara viticola, the grapevines are transferred to a controlled-environment cabinet with dew-point conditions at 22° C. on day 5 after the infection.
The tests are carried out in each case on day 6 after the infection by determining the leaf area infected with Plasmopara viticola as a percentage compared with the infected, untreated control.

On to `CO/N=C(\C(=O)OC)c1ccccc1CON=C(C)C(C)=CC=C(C)CCC=C(C)C` [Compound 23], for which, in assay [1], the pest or weed control at 160 ppm was greater than 75%. The pest or weed control at 50 ppm in assay [2] was greater than 75%.
With `CO/N=C(\C(=O)OC)c1ccccc1CON=C(C)c1cccc(F)c1` [Compound 40], the pest or weed control at 160 ppm in assay [3] and in assay [1] was greater than 75% throughout.
As for `CO/N=C(\C(=O)OC)c1ccccc1CON=C(c1ccc(Cl)cc1)C(F)(F)F` [Compound 142], the pest or weed control at 50 ppm in assay [4] is greater than 75%.
With `CO/N=C(\C(=O)OC)c1ccccc1CON=C(c1cccc(Cl)c1)C(F)(F)F` [Compound 141], in assay [1], the pest or weed control at 160 ppm was greater than 75%.
For `CCOc1cc(C(C)=NOCc2ccccc2/C(=N/OC)C(=O)OC)ccc1OC` [Compound 85], the pest or weed control at 50 ppm in assay [4] is greater than 75%.
In the case of `CO/N=C(\C(=O)OC)c1ccccc1CON=C(C)c1cccc(OCC2CC2)c1` [Compound 68], the pest or weed control at 160 ppm in assay [3] is greater than 75%.
As for `COCc1cc(C(C)=NOCc2ccccc2/C(=N/OC)C(=O)OC)ccc1OC` [Compound 83], in assay [3], the pest or weed control at 160 ppm was greater than 75%. The pest or weed control at 50 ppm in assay [4] is greater than 75%.
Consider `CO/N=C(\C(=O)OC)c1ccccc1CON=C(C)c1cccc(OCC#N)c1` [Compound 92], for which the pest or weed control at 50 ppm in assay [2] is greater than 75%.
`CO/N=C(\C(=O)OC)c1ccccc1CON=C(SC)c1ccccc1` [Compound 124]: the pest or weed control at 50 ppm in assay [4] and in assay [2] was greater than 75% throughout.
`CO/N=C(\C(=O)OC)c1ccccc1CON=C(C)c1cccs1` [Compound 14]: in assay [3], the pest or weed control at 160 ppm was greater than 75%. For the same compound, the pest or weed control at 50 ppm in assay [4] and in assay [2] was greater than 75% each time.
For the compound `CO/N=C(\C(=O)OC)c1ccccc1CON=C(C)C(=O)c1cccc([N+](=O)[O-])c1` [Compound 130], the pest or weed control at 160 ppm in assay [3] was greater than 75%. Also, in assay [2], the pest or weed control at 50 ppm was greater than 75%.
For `CO/N=C(\C(=O)OC)c1ccccc1CON=C(C)c1ccc(OC(F)(F)C(F)(F)F)cc1` [Compound 106], in assay [4], the pest or weed control at 50 ppm was greater than 75%.
Turning to `CO/N=C(\C(=O)OC)c1ccccc1CON=C(C)c1ccccc1` [Compound 134], the pest or weed control at 50 ppm in assay [4] is greater than 75%.
Regarding `CO/N=C(\C(=O)OC)c1ccccc1CON=C(C)c1cc(C)ccc1F` [Compound 137], the pest or weed control at 160 ppm in assay [1] was greater than 75%.
In the case of `CO/N=C(\C(=O)OC)c1ccccc1CON=C(c1cccc(C(F)(F)F)c1)C(F)(F)F` [Compound 39], the pest or weed control at 160 ppm in assay [1] is greater than 75%.
On the same count and under the same terms, next, `CO/N=C(\C(=O)OC)c1ccccc1CON=C(C)c1ccc2cc(OC)ccc2c1` [Compound 119]: greater than 75%.
Regarding `CO/N=C(\C(=O)OC)c1ccccc1CON=C(c1cccc(Br)c1)C1CC1` [Compound 147], in assay [4], the pest or weed control at 50 ppm is greater than 75%. Further, the pest or weed control at 160 ppm in assay [5] was greater than 75%.
For the compound `CO/N=C(\C(=O)OC)c1ccccc1CON=C(C)Cc1ccc2c(c1)OCO2` [Compound 54], the pest or weed control at 50 ppm in assay [4] and in assay [2] was greater than 75% in each case.
As for `CO/N=C(\C(=O)OC)c1ccccc1CON=C(OC)c1ccc(Cl)cc1` [Compound 127], the pest or weed control at 160 ppm in assay [1] was greater than 75%.
On the same count and under the same terms, next, `CO/N=C(\C(=O)OC)c1ccccc1CON=C(c1ccc(Oc2ccccc2)cc1)C1CC1` [Compound 149]: greater than 75%.
`CO/N=C(\C(=O)OC)c1ccccc1CON=C(C)c1ccc(OC)c([N+](=O)[O-])c1` [Compound 82]: in assay [4], the pest or weed control at 50 ppm is greater than 75%. For the same compound, the pest or weed control at 160 ppm in assay [5] is greater than 75%.
For the compound `CO/N=C(\C(=O)OC)c1ccccc1CON=C(C)c1ccc(Cl)c(Cl)c1` [Compound 13], the pest or weed control at 160 ppm in assay [3] and in assay [1] was greater than 75% each time. Further, the pest or weed control at 50 ppm in assay [4] and in assay [2] was greater than 75% each time.
As to `CO/N=C(\C(=O)OC)c1ccccc1CON=C(SC)c1ccc(Cl)cc1` [Compound 125], the pest or weed control at 160 ppm in assay [5] is greater than 75%.
For the compound `CO/N=C(\C(=O)OC)c1ccccc1CON=C(c1cccc(Cl)c1)C1CC1` [Compound 145], the pest or weed control at 160 ppm in assay [3] was greater than 75%.
`CO/N=C(\C(=O)OC)c1ccccc1CON=C(c1ccc2ccccc2c1)C(F)(F)F` [Compound 143]: the pest or weed control at 50 ppm in assay [2] was greater than 75%.
Regarding `CO/N=C(\C(=O)OC)c1ccccc1CON=C(C)c1ccc(OC)c(CSC)c1` [Compound 49], the pest or weed control at 160 ppm in assay [3] was greater than 75%. Further, in assay [4], the pest or weed control at 50 ppm is greater than 75%.
In the case of `CO/N=C(\C(=O)OC)c1ccccc1CON=C(c1ccc(F)cc1)C1CC1` [Compound 89], in assay [1], the pest or weed control at 160 ppm is greater than 75%.
Turning to `CO/N=C(\C(=O)OC)c1ccccc1CON=C(C)c1cc(Cl)cc(Cl)c1` [Compound 136], the pest or weed control at 50 ppm in assay [2] is greater than 75%.
As for `CO/N=C(\C(=O)OC)c1ccccc1CON=C(SC)c1cccc(C(F)(F)F)c1` [Compound 126], in assay [1], the pest or weed control at 160 ppm was greater than 75%.
As to `CO/N=C(\C(=O)OC)c1ccccc1CON=C(C)C(C)Oc1ccccc1` (stereo not shown) [Compound 37], in assay [1], the pest or weed control at 160 ppm is greater than 75%.
Take `CO/N=C(\C(=O)OC)c1ccccc1CON=C(C)c1ccc([N+](=O)[O-])cc1` [Compound 25]: the pest or weed control at 160 ppm in assay [3] and in assay [1] was greater than 75% in each case. The pest or weed control at 50 ppm in assay [2] is greater than 75%.
For `CO/N=C(\C(=O)OC)c1ccccc1CON=C(C)c1cccc(SC#N)c1` [Compound 71], in assay [3], the pest or weed control at 160 ppm was greater than 75%.
As to `CO/N=C(\C(=O)OC)c1ccccc1CON=C(C)c1cc(OC)c(OC)c(OC)c1` [Compound 20], the pest or weed control at 50 ppm in assay [4] and in assay [2] was greater than 75% in each case.
Consider `CCCC(=NOCc1ccccc1/C(=N/OC)C(=O)OC)c1ccccc1` [Compound 18], for which, in assay [1], the pest or weed control at 160 ppm is greater than 75%.
Take `C#CCOc1cccc(C(C)=NOCc2ccccc2/C(=N/OC)C(=O)OC)c1` [Compound 67]: the pest or weed control at 50 ppm in assay [2] is greater than 75%.
`CO/N=C(\C(=O)OC)c1ccccc1CON=CC(=O)c1cccs1` [Compound 105]: the pest or weed control at 160 ppm in assay [1] was greater than 75%. For the same compound, the pest or weed control at 50 ppm in assay [4] and in assay [2] was greater than 75% each time.
For `CO/N=C(\C(=O)OC)c1ccccc1CON=C(C)c1cccc(C#N)c1` [Compound 70], in assay [1], the pest or weed control at 160 ppm is greater than 75%.
`CO/N=C(\C(=O)OC)c1ccccc1CON=C(C)C(=O)c1ccc2c(c1)OCO2` [Compound 64]: the pest or weed control at 50 ppm in assay [4] is greater than 75%.
On to `CO/N=C(\C(=O)OC)c1ccccc1CON=C(C)c1ccc(OC)cc1` [Compound 19], for which the pest or weed control at 160 ppm in assay [3] was greater than 75%. Also, the pest or weed control at 50 ppm in assay [4] was greater than 75%.
With `CO/N=C(\C(=O)OC)c1ccccc1CON=C(C)c1cccc([N+](=O)[O-])c1` [Compound 26], the pest or weed control at 160 ppm in assay [3] was greater than 75%. Further, the pest or weed control at 50 ppm in assay [2] is greater than 75%.
Regarding `CO/N=C(\C(=O)OC)c1ccccc1CON=C(c1ccccc1)C(F)(F)F` [Compound 27], the pest or weed control at 160 ppm in assay [1] was greater than 75%.
Turning to `C=CCOc1cccc(C(C)=NOCc2ccccc2/C(=N/OC)C(=O)OC)c1` [Compound 66], the pest or weed control at 160 ppm in assay [3] is greater than 75%. In addition, the pest or weed control at 50 ppm in assay [4] is greater than 75%.
